Results on 2 compounds are retold here after article PMC10987521, “An all-in-one tetrazine reagent for cysteine-selective labeling and bioorthogonal activable prodrug construction” (Nature Communications, 2024).

The subject of series [1] is B16F10 cells. In words: Cytotoxicity (CCK8, 48 h) of drugs, PDCs, activable-Drugs and TCO, B16F10. It is filed as cell-based, Mouse. The following applies: Mus musculus, B16-F10; B16F10, 48 h, CCK8, n = 3; activable-Dox: RGD-Dox 2 h, then 200 μM TCO, 48 h in total.
For the next series, the system named is U87 cells. The series can be described thus: Cytotoxicity (CCK8, 48 h) of drugs, PDCs, activable-Drugs and TCO, U87. Type of series: cell-based, Human. The conditions noted are these: Homo sapiens, U-87 MG; U87, 48 h, CCK8, n = 3; activable-Dox: RGD-Dox 2 h, then 200 μM TCO, 48 h in total.
Another series has as its system SKOV3 cells. In words: Cytotoxicity (CCK8, 48 h) of drugs, PDCs, activable-Drugs and TCO, SKOV3. The conditions noted are these: Homo sapiens, SK-OV-3; SKOV3, 48 h, CCK8, n = 3; activable-Dox: RGD-Dox 2 h, then 200 μM TCO, 48 h in total. Type of series: cell-based, Human.
A further series deals with LX2 cells. The series can be described thus: Cytotoxicity (CCK8, 48 h) of drugs, PDCs, activable-Drugs and TCO, LX2. Type of series: cell-based, Human. The following applies: Homo sapiens, LX-2; LX2 (αvβ3-negative), 48 h, CCK8, n = 3; activable-Dox: RGD-Dox 2 h, then 200 μM TCO.
The test system of series [2] is B16F10 cells. The series can be described thus: Cell uptake by fluorescence imaging, B16F10. Type of series: cell-based, Mouse. The following applies: B16F10 and LX2 cells, 10 μM, 2 h. How it is done: (§1) B16F10 cells were cultured for 48 h. […]
(§2) 12.1 Calculation of the fluorescence coefficient (F c)
(§3) The Fc was the radio calculated
(§4) 12.2 Uptake calculation of the B16F10 cells […]
(§5) deviation were analyzed using Origin Pro 2015.
(§6) B16F10 cells, characterized by α vβ3
(§7) Following the incubation period, the
Subsequently, the cells were trypsinized and underwent three PBS rinses.
12 .4 Cell uptake analysis by fluorescence imaging

Series [3] relates to B16F10 cells. In words: Comparison of cell uptake between RGD-Dox and Dox using flow cytometry. Type of series: cell-based, Mouse. As for the experimental part:
as §1, §2, §3, §4, §5, §6, §7
Subsequently, the cells were trypsinized and underwent three PBS rinses. […]
On the technique in general: In flow cytometry, cells or beads pass a laser one at a time.

Another series deals with B16F10 melanoma tumor. In words: In vivo anticancer efficacy, subcutaneous B16F10 melanoma tumor model. Further details: species or system BALB/c nude mice. How it is done:
Tumor-bearing mice were established by subcutaneously injecting a suspension of 5 × 10^5 B16F10 cells per mouse into the front flank of each nude mouse. When tumor volume reached 50−70 mm^3, the animals were randomly divided into five groups (n = 5). The mice were administered different compounds suspended in PBS via the tail vein every 3 days for a total of four times.
(§8) The mice underwent four treatment courses on day 0, day 3, day 6, and day 9. Tumor size and body weight were measured every day. Tumor volume was calculated via the following formula: V = 1/2 × (minor axis) × (major axis)[2].
(§9) After 12 days, the mice were sacrificed and dissected to obtain tumor tissues and main organs, including heart, liver, spleen, lung, and kidney. Subsequently, all tissues were fixed in a 4% paraformaldehyde solution, routinely paraffin-embedded and sectioned, and then stained with hematoxylin and eosin, as well as using TdT-mediated dUTP nick-end labeling (TUNEL) for subsequent pathological analysis. TUNEL-positive cells appeared fluorescent green, representing the apoptosis of tumor cells (nuclei were fluorescent blue, stained with DAPI).
13. In vivo anticancer efficacy […]
13.2 Calculation of the tumor growth inhibition values (TGI)
Tumor growth inhibition values (TGI) were calculated using the following formula: TGI (%) = (1 − RTVtreatment/
RTVcontrol)*100. RTV refers to relative tumor volume, representing the ratio of the volume at the end of treatment to the
volume at the beginning of treatment. […]

Series [4] in a line: Body weight and organ histology in the B16F10 tumor model. It is filed as in vivo, BALB/c nude mice. As for the experimental part:
as §8, §9

In series [5] the test system is B16F10, U87, SKOV3 and LX2 cells. In words: Cytotoxicity (CCK8, 48 h), figures stated across several cell lines. Type of series: cell-based. The following applies: read-out: IC50 values against all four cell lines.
Series [6] is described as follows: Labeling reaction kinetics between tetrazine 1 and Cys. The conditions noted are these: 25 °C, PB (30% MeCN, 20 mM, pH 8.0), equal concentrations, UV-Vis 300 nm. Type of series: physicochemical. As for the experimental part: The second-order rate constant for the labeling reactions between tetrazine 1 and Cys was determined at 25 °C in PB (30% MeCN, 20 mM, pH 8.0) under second-order conditions using a 6000+ (Quawell) UV-Vis spectrophotometer. The concentrations of cysteine and tetrazine were identical. The specific difference in absorption wavelength (300 nm) between 1 and Cys-1 was measured over time. The second-order rate constant k2 was calculated from the slope of a plot of (1/c – 1/c0) versus time.
5. Competitive labeling reaction with other nucleophilic amino acids
For the competitive labeling experiment, 10 equiv. (2 mM) of N-Fmoc-Lys, N-Fmoc-Arg, Ser, Tyr, and 1.3 equiv. […] The resulting solution was maintained at 25 °C and monitored by LC –MS. […]
Each voTz analogue (1.1 equiv.) was added to a 0.25 mL vial containing solvent. […] The chromatogram peak areas of all relevant Cys -containing species were integrated, and the yiel d was determined using the following equation: Yield (%) = Iproduct/(Istarting + Iproduct + Ioxidation + Iside product) × 100, where Istarting, Iproduct, Ioxidation, and Iside product respectively represent the average ion counts of remaining starting material, product, oxidized starting material and any side product, if present 2. […]
DLS analyses and particle zeta potential values were determined using a Nano ZS ZEN 3690 instrument (Malvern […]

For `COc1cccc2c1C(=O)c1c(O)c3c(c(O)c1C2=O)C[C@@](O)(C(=O)CO)C[C@@H]3O[C@H]1C[C@H](N)[C@H](O)[C@H](C)O1` [Dox, doxorubicin], the half-maximal inhibitory concentration (IC50) – broadly, the concentration at which inhibition is half-maximal – in the series on B16F10 cells [1] was 2.05 µM; with U87 cells, 3.26 µM; in the series on SKOV3 cells, 4.45 µM; with LX2 cells, 3.37 µM; in series [5], 2.05 to 4.45 µM. Besides, the “cellular uptake of free drug (imaging)” value in the series on B16F10 cells [2] was “obvious uptake through nonspecific diffusion and internalization”. The Normalized uptake was 1 in the series with B16F10 cells [3] (normalized to Dox = 1, Data 1); 1 in the series with B16F10 cells [3] (normalized to Dox = 1, Data 2); 1 with B16F10 cells [3] (normalized to Dox = 1, Data 3). Further, in the series on B16F10 melanoma tumor (Data 5), the “tumor growth inhibition values (TGI %)” value is 46.63%. For the same compound, in the series with B16F10 melanoma tumor (after four i.v. courses (days 0, 3, 6, 9), 3.67 μmol·kg^−1, n = 5, TGI = (1 − RTVtreatment/RTVcontrol)*100), the “tumor growth inhibition value (TGI)” value was 59.4%. Further, in the series on B16F10 melanoma tumor (four i.v. courses, 3.67 μmol·kg^−1 (TCO-P4 36.7 μmol·kg^−1), n = 5), the “tumor growth / inhibition in words” value is “slightly slowed the tumor growth”. The “histology of heart, liver, spleen, lung, kidney” value in series [4] (after 12 days) is listed as “typical inflammatory injury”. For the same compound, in series [4] (four i.v. courses, 3.67 μmol·kg^−1, compared with PBS group), the “body weight in words” value is listed as “serious loss of body weight”.

Regarding `C=Cc1nnc(-c2ccccc2)nn1` [compound 1, phenyl vinyltetrazine], the “second-order rate constant of the labeling reaction between 1 and Cys” value in [6] was 13 ± 0.8 M⁻¹ s⁻¹.
